Test results from article PMC10407959 (Journal of medicinal chemistry, 2023).

Tests used:
[1] = biological target: 5-HT5A (Homo sapiens, UniProt P47898); test: PDSP off-target radioligand binding
[2] = test system: mouse CCI model; test: mouse model of chronic neuropathic pain; details: day 7 post-sciatic nerve constriction, adult male mice
[3] = pharmacokinetics of mono-ester prodrug 63 s.c. in female CD1 mice; details: 10 mg/kg s.c.
[4] = biological target: T1, hP2Y14R (Homo sapiens, UniProt Q15391); test: fluorescent binding saturation study in whole CHO cells expressing hP2Y14R; details: final concentrations of 53 of 2, 100, 500, and 20,000 nM
T1 sequence (Q15391 1-338): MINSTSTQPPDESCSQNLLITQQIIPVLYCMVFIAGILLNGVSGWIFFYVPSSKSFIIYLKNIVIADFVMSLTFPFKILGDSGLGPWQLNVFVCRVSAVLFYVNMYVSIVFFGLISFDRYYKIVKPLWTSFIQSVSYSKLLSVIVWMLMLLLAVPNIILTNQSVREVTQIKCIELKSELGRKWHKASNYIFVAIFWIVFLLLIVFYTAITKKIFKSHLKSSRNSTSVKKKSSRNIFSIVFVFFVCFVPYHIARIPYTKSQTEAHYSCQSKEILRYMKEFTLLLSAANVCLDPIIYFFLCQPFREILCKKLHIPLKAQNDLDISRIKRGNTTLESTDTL

[5] = pharmacokinetics of double prodrug 62 p.o. in female CD1 mice; details: 62 by oral gavage (p.o.)
[6] = test system: protease-mediated mouse model of allergic asthma; test: protease-mediated mouse model of allergic asthma, BAL fluid cells; details: 10 mg/kg i.p., C57BL/6J mice
[7] = biological target: T2, mP2Y14R (Mus musculus, UniProt Q9ESG6); test: whole-cell fluorescent binding assay at mP2Y14R expressed in HEK-293 cells
T2 sequence (Q9ESG6 1-338): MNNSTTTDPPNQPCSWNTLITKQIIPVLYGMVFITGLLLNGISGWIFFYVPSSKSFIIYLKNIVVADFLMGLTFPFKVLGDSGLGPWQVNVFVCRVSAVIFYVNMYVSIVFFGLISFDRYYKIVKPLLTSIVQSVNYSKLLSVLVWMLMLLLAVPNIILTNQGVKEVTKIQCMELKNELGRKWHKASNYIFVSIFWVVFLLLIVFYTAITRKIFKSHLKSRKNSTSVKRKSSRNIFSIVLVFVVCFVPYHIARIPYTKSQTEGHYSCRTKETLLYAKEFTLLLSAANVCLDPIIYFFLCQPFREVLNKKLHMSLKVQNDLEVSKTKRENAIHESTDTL

[8] = biological target: T1, hP2Y14R; test: whole-cell fluorescent competitive binding assay; details: up to 100 μM, tracer 52, hP2Y14R-expressing CHO cells

Chain of 5-HT5A (P47898 whole entry, species assumed): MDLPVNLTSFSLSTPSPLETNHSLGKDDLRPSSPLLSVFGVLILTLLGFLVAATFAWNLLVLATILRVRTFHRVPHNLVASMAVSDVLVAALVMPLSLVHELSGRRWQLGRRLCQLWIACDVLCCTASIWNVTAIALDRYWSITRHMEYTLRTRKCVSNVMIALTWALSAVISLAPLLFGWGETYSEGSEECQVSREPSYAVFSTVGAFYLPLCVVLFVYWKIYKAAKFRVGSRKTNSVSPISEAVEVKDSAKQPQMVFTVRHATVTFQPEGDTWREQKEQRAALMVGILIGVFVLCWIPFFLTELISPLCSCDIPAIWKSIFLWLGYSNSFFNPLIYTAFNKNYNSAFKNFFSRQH

## O=C(O)c1cc(-c2ccc(C3(O)C[C@H]4CNC[C@@H]4C3)cc2)c2ccc(-c3ccc(C(F)(F)F)cc3)cc2c1 (racemic) [compound 11, rac-4-(4-((3aR,6aR)-5-Hydroxyoctahydrocyclopenta[c]pyrrol-5-yl)phenyl)-7-(4-(trifluoromethyl)phenyl)-2-naphthoic Acid]
[1]
  Ki: 2.4 µM
[2]; i.p. injection
  reversal of mechano-allodynia (paw withdrawal threshold): maintained over 3 h

## O=C(O)c1cc(-c2ccc(C3CCCNCC3)cc2)c2ccc(-c3ccc(C(F)(F)F)cc3)cc2c1 (stereo not drawn) [compound 16, 4-(4-(Azepan-4-yl)phenyl)-7-(4-(trifluoromethyl)phenyl)-2-naphthoic Acid]
[1]
  Ki: 4.8 µM
[2]; i.p. injection
  reversal of mechano-allodynia (paw withdrawal threshold): provided benefit

## CN(C)C(=O)COC(=O)c1cc(-c2ccc([C@H]3C[C@H]4C[C@@H]3CN4)cc2)c2ccc(-c3ccc(C(F)(F)F)cc3)cc2c1 [compound 63, reference compound]
[2]; 10 μmol/kg, p.o. (oral gavage)
  reversal of mechano-allodynia (paw withdrawal threshold): fully efficacious within 1 h
[3]
  in vivo cleavage of prodrug to active drug 2b: rapid cleavage of the ester group

## C[Si]1(C)C2=CC(=[N+]3CCC3)C=CC2=C(c2cc(C(=O)NCCCCCCn3cc(CCCCN4CCC(c5ccc(-c6cc(C(=O)O)cc7cc(-c8ccc(C(F)(F)F)cc8)ccc67)cc5)CC4)nn3)ccc2C(=O)[O-])c2ccc(N3CCC3)cc21 [compound 53]
[4]
  specific binding in whole CHO cells expressing the hP2Y14R: did not demonstrate potent specific binding

## CCOC(=O)N1CCC(c2ccc(-c3cc(C(=O)OCC(=O)N(C)C)cc4cc(-c5ccc(C(F)(F)F)cc5)ccc34)cc2)CC1 [compound 62, Ethyl 4-(4-(3-((2-(Dimethylamino)-2-oxoethoxy)carbonyl)-6-(4-(trifluoromethyl)phenyl)naphthalen-1-yl)phenyl)piperidine-1-carboxylate]
[2]; i.p. injection
  reversal of mechano-allodynia (paw withdrawal threshold): provided benefit
[5]
  oral bioavailability: 6.9 % F
  peak concentration: ~ 2 μg/mL

## CCOC(=O)N1C[C@H]2C[C@@H](C1)[C@@]2(O)c1ccc(-c2cc(C(=O)OCC(=O)N(C)C)cc3cc(-c4ccc(C(F)(F)F)cc4)ccc23)cc1 [compound 50, Ethyl (1R,5S,6r)-6-(4-(3-((2-(Dimethylamino)-2-oxoethoxy)-carbonyl)-6-(4-(trifluoromethyl)phenyl)naphthalen-1-yl)phenyl)-6-hydroxy-3-azabicyclo[3.1.1]heptane-3-carboxylate]
[2]; 10 μmol/kg, p.o. (oral gavage)
  reversal of mechano-allodynia (paw withdrawal threshold): reversed the mechano-allodynia
[6]
  airway eosinophilia (eosinophils in BAL fluid): lack of activity

## O=C(O)c1cc(-c2ccc(C3=C[C@H]4CNC[C@@H]4C3)cc2)c2ccc(-c3ccc(C(F)(F)F)cc3)cc2c1 (racemic) [compound 12, rac-4-(4-((3aR,6aR)-1,2,3,3a,4,6a-Hexahydrocyclopenta[c]-pyrrol-5-yl)phenyl)-7-(4-(trifluoromethyl)phenyl)-2-naphthoic Acid]
[7]
  more potent at the mP2Y14R (vs human): 3 fold

## CCOC(=O)N1C[C@H]2C[C@@H]1C[C@@H]2c1ccc(-c2cc(C(=O)OCC(=O)N(C)C)cc3cc(-c4ccc(C(F)(F)F)cc4)ccc23)cc1 [compound 64, reference compound]
[2]; i.p. injection
  reversal of mechano-allodynia (paw withdrawal threshold): provided benefit

## O=C(Cc1ccc(C(F)(F)F)cc1)Nc1cccc(-c2nc3cc(Cl)ccc3o2)c1 [4a, reference compound]
[8]
  binding inhibition: no binding inhibition
